Laboratory results as given in publication PMC12263422, “Cryo-EM structure of the human THIK-1 K2P K^+ channel reveals a lower Y gate regulated by lipids and anesthetics” (Nature Structural & Molecular Biology, 2025).
pEC50: −log10 of the molar value. “And” between values parts separate entries of the source, which are not always exact repeats. Equal entries are not always repeated.

Experiments:
THIK-1 R92A = molecular target: T1, THIK-1 R92A (Homo sapiens, UniProt Q9HB14, R92A); assay: Inside-out excised patch recordings, oocytes, THIK-1 R92A mutant (lipid activation); type: cell-based; conditions: for pEC50: Linoleic acid EC50, THIK-1 R92A; for Fold activation with 30.0 µM linoleic acid: THIK-1 R92A
T1 construct: expressed in transfected cells; host or cells: Xenopus oocytes (mRNA injection)
T1 sequence (Q9HB14 1-408 R92A): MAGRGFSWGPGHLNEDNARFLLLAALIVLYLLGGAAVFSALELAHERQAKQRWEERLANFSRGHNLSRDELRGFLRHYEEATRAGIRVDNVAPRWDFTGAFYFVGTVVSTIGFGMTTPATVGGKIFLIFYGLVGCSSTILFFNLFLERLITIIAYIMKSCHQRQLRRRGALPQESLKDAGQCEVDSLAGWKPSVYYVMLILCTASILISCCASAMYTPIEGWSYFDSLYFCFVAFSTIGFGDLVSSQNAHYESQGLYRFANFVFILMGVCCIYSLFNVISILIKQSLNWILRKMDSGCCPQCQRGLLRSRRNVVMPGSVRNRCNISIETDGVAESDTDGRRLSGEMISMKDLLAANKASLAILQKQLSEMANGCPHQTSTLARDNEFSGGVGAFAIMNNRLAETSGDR
Excerpt: (§1) Human K2P13.1 THIK-1 (GenBank accession number: NM_022054) and human K2P12.1 THIK-2 (NM_022055.1) were used in this study. For functional expression studies, the respective K^+ channel subtype coding sequences were subcloned into the oocyte expression vector pSGEM or the dual-purpose expression vector pFAW[41] and verified by sequencing. All mutant channels were obtained by site-directed mutagenesis and verified by sequencing. To increase surface expression and macroscopic currents, measurements of THIK-2 channels used a mutated ER retention motif, (R11A R12A R14A R15A R16A; THIK-2*)[20]. Vector DNA was linearized with NheI or MluI, and mRNA was synthesized in vitro using the SP6 or T7 AmpliCap Max High Yield Message Maker Kit (Cellscript, USA) or HiScribe T7 ARCA mRNA Kit (New England Biolabs).
(§2) Two-electrode voltage–clamp (TEVC) studies were performed in Xenopus oocytes. All animal use conformed to the Guide for the Care and Use of Laboratory Animals (NIH Publication 85–23), and all experiments using Xenopus toads were approved by the local ethics panels. Oocytes were stored at 17 °C in ND96 recording solution composed of (in mM): 96 NaCl, 2 KCl, 1.8 CaCl2, 1 MgCl2, 5 HEPES (pH 7.5 adjusted with NaOH and HCl), supplemented with Na-pyruvate (275 mg L^–1), theophylline (90 mg L^–1) and gentamicin (50 mg L^–1). Oocytes were injected with 1 ng mRNA for WT or mutant channels, and were incubated for 24–48 h at 17 °C. Two-electrode voltage clamp recordings were then performed as previously described[42],[43]. For macroscopic patch–clamp measurements, oocytes were obtained as described above incubated at 17 °C in a solution containing (mM): 54 NaCl, 30 KCl, 2.4 NaHCO3, 0.82 MgSO4 ×7 H2O, 0.41 CaCl2, 0.33 Ca(NO3)2 ×4 H2O and 7.5 TRIS (pH 7.4 adjusted with NaOH and HCl) for 1–4 days before use. Excised patch recordings in inside-out configuration conditions were performed at room temperature. Patch pipettes were made from thick-walled borosilicate glass GB 200TF-8P (Science Products), had resistances of 0.2–0.5 MΩ (tip diameter, 10–25 µm) and filled with a pipette solution (in mM): 120 KCl, 10 HEPES and 3.6 CaCl2 (pH 7.4 adjusted with KOH and HCl). Intracellular bath solutions and compounds were applied to the cytoplasmic side of excised patches for the various K^+ channels through a gravity flow multi-barrel pipette system. The intracellular solution had the following composition (in mM): 120 KCl, 10 HEPES, 2 EGTA and 1 pyrophosphate (pH adjusted with KOH and HCl). Currents were recorded with an EPC10 amplifier (HEKA Electronics) and sampled at 10 kHz or higher, with filtering set to 3 kHz (–3 dB) or higher, as appropriate for sampling rate. For measurements of GPCR activation, whole-cell currents were recorded for THIK-1 in transiently transfected HEK-293 cells. Cells were stimulated by a ramp protocol between −100 and +60 mV (holding potential, −80 mV). The pipette solution was composed of (in mM): 140 KCl, 2 MgCl2, 1 CaCl2, 2.5 EGTA and 10 HEPES (pH 7.3 adjusted with KOH and HCl). The extracellular bath solution had the following composition (in mM): 135 NaCl, 5 KCl, 2 MgCl2, 2 CaCl2, 10 glucose and 10 HEPES pH (pH 7.3 adjusted with NaOH and HCl). Oxotremorine M (Oxo-M) was added to extracellular bath solution to obtain the final concentration. Single-channel currents were recorded with an Axopatch 200B amplifier through a Digidata 1440A digitizer (Molecular Devices). Data were filtered at 2 kHz and recorded at a 200-kHz sampling rate with the program Clampex (Molecular Devices). Pipette solution and bath solution for cell-attached recordings contained (in mM): 140 KCl, 2 MgCl2, 1 CaCl2 and 10 HEPES (pH 7.4 adjusted with KOH and HCl). For inside-out recordings, the bath solution contained (in mM): 140 KCl, 2 MgCl2, 1 CaCl2 and 10 HEPES (pH 7.2 adjusted with KOH and HCl). All experiments were conducted at room temperature. […]

[1] = molecular target: T2, human K2P12.1 THIK-2 (THIK-2*) (Homo sapiens, UniProt Q9HB15, R11A/R12A/R14A/R15A/R16A); assay: Inside-out excised patch recordings, oocytes, THIK-2* (ER-retention mutant); type: cell-based; conditions: for Normalized currents: THIK-2* (unstimulated)
T2 construct: expressed in transfected cells; host or cells: Xenopus oocytes (mRNA injection)
T2 sequence (Q9HB15 1-430 R11A/R12A/R14A/R15A/R16A): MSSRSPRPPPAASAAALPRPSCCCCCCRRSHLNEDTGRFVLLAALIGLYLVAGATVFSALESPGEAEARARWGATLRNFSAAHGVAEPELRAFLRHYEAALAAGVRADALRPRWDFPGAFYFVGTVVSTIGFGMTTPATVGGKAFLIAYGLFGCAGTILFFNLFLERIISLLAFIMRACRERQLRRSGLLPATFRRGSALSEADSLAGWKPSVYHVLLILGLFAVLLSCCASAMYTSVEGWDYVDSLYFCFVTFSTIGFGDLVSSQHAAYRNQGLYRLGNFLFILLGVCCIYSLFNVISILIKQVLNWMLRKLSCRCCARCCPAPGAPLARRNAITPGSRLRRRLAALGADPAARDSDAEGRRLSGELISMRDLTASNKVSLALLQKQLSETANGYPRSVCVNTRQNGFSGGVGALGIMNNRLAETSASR
Excerpt: as §1, §2

[2] = THIK-2* WT (unstimulated), mean
[3] = THIK-2* WT, individual recordings

pEC50 (THIK-1 R92A; individual recordings)	pEC50 (THIK-1 R92A; mean)	Fold activation with 30.0 µM linoleic acid (THIK-1 R92A; mean)	SMILES	Fold activation with 30.0 µM linoleic acid (THIK-1 R92A; individual recordings)	Normalized currents ([1]; 0.1 µM TPenA)	Normalized currents ([1]; 1 µM TPenA)	Normalized currents ([1]; 10 µM TPenA)	Normalized currents ([1]; 100 µM TPenA)	Normalized currents ([1]; 1000 µM TPenA)	Normalized currents ([1]; 5000 µM TPenA)	τ of 1 mM TPenA block [1, 2] [s]	τ of 1 mM TPenA release [1, 2] [s]	τ of 1 mM TPenA block [1, 3]	τ of 1 mM TPenA release [1, 3]
4.28 and 4.41 and 4.43 and 4.22 and 4.35 and 4.04 and 3.94	4.20	1.89	CCCCC/C=C\C/C=C\CCCCCCCC(=O)O [linoleic acid]	1.900 and 2.280 and 2.410 and 2.160 and 1.740 and 1.840 and 1.500 and 1.630 and 1.510	–	–	–	–	–	–	–	–	–	–
–	–	–	CCCCC[N+](CCCCC)(CCCCC)CCCCC [TPenA, tetrapentylammonium]	–	0.99	0.98	0.94	0.71	0.41	0.35	3.83	3.40	5.710 s and 3.800 s and 2.660 s and 5.630 s and 4.260 s and 2.170 s and 2.560 s	4.580 s and 3.250 s and 3.550 s and 3.310 s and 3.680 s and 2.030 s
